Measurements published in the supplement of paper PMC10307832.

Compound: Cc1ccc(NC(=O)c2ccc(CN3CCN(C)CC3)cc2)cc1Nc1nc(-c2cccnc2)cs1 [Masitinib] + CC1(C)CCC(c2ccc(Cl)cc2)=C(CN2CCN(c3ccc(C(=O)NS(=O)(=O)c4ccc(N[C@H](CCN5CCOCC5)CSc5ccccc5)c(S(=O)(=O)C(F)(F)F)c4)cc3)CC2)C1 [Navitoclax] (partner 0.5 µM)
Experiment: relative viability (nuclei count vs DMSO), 5 days (fraction); higher = more cells survive
Details: first compound 0.01 µM
In short: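 Values are medians from duplicate plates. Each reflects relative viability, defined as the nuclei count of treated wells over that of vehicle wells. Lung cancer cell lines in 1536-well plates were pin-tool dosed one day after seeding with one drug alone or with a fixed anchor-drug dose plus five library-drug doses (not always all listed) in √10 steps, then fixed, stained and imaged at 4× after 5 days.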

Compared with H3255, COR-L23 is higher in relative viability: 0.441 for the first, 1.13 for the second.

Compared with COR-L 105, LOU-NH91 is lower in relative viability: 0.747 for the first, 0.651 for the second.

Compared with ChaGo-K-1, NCI-H3122 is lower in relative viability: 1.36 for the first, 1.03 for the second.

Compared with HOP-62, LXF-289 is lower in relative viability: 0.93 for the first, 0.843 for the second.

First: BEN
Second: HARA
The relative viability of the first is lower: 0.066 for the first, 1.16 for the second.

Going from HCC-78 to NCI-H441, the relative viability rises from 0.722 to 0.782.

First: LCLC-97TM1
Second: NCI-H2023
The relative viability of the first is lower: 0.35 for the first, 1.05 for the second.

Going from NCI-H460 to NCI-H520, the relative viability falls from 1.22 to 1.21.

Going from NCI-H2405 to SW 1573, the relative viability rises from 0.874 to 0.975.

First: NCI-H1395
Second: 201T
The relative viability of the first is higher: 1.25 for the first, 0.954 for the second.

First: NCI-H1975
Second: HCC-827
The relative viability of the first is higher: 1.15 for the first, 0.924 for the second.

Going from NCI-H2347 to NCI-H1355, the relative viability rises from 0.709 to 0.956.

CAL-12T gave a relative viability of 1.52.

Same assay, conditions: first compound 0.03162 µM

Compared with H3255, COR-L23 is higher in relative viability: 0.409 for the first, 0.892 for the second.

Going from COR-L 105 to LOU-NH91, the relative viability falls from 0.688 to 0.653.

Compared with ChaGo-K-1, NCI-H3122 is higher in relative viability: 0.979 for the first, 1.04 for the second.

Going from HOP-62 to LXF-289, the relative viability falls from 1.02 to 0.927.

Compared with BEN, HARA is higher in relative viability: 0.0657 for the first, 1.06 for the second.

First: HCC-78
Second: NCI-H441
The relative viability of the first is higher: 0.822 for the first, 0.78 for the second.

Compared with LCLC-97TM1, NCI-H2023 is higher in relative viability: 0.42 for the first, 0.981 for the second.

Going from A-427 to NCI-H460, the relative viability falls from 0.99 to 0.834.

First: NCI-H1755
Second: NCI-H2405
The relative viability of the first is lower: 0.975 for the first, 1.01 for the second.

Compared with SW 1573, NCI-H1395 is higher in relative viability: 1.05 for the first, 1.17 for the second.

First: 201T
Second: NCI-H1975
The relative viability of the first is higher: 1.2 for the first, 1.09 for the second.

Going from HCC-827 to NCI-H2347, the relative viability falls from 0.996 to 0.764.

First: NCI-H1355
Second: CAL-12T
The relative viability of the first is lower: 0.842 for the first, 1.32 for the second.

Same assay, conditions: first compound 0.1 µM

Compared with H3255, COR-L23 is higher in relative viability: 0.496 for the first, 1.19 for the second.

Going from COR-L 105 to LOU-NH91, the relative viability rises from 0.781 to 0.791.

Compared with ChaGo-K-1, NCI-H3122 is lower in relative viability: 1.31 for the first, 1.04 for the second.

First: HOP-62
Second: LXF-289
The relative viability of the first is lower: 0.76 for the first, 0.966 for the second.

First: BEN
Second: HARA
The relative viability of the first is lower: 0.066 for the first, 1.2 for the second.

Compared with HCC-78, NCI-H441 is lower in relative viability: 0.839 for the first, 0.522 for the second.

Compared with LCLC-97TM1, NCI-H2023 is higher in relative viability: 0.0511 for the first, 1.12 for the second.

Compared with NCI-H460, NCI-H1755 is lower in relative viability: 1.27 for the first, 1.1 for the second.

Compared with NCI-H520, NCI-H2405 is lower in relative viability: 1.17 for the first, 1.07 for the second.

Going from SW 1573 to NCI-H1395, the relative viability rises from 1.09 to 1.11.

Going from 201T to NCI-H1975, the relative viability rises from 1.08 to 1.14.

Going from HCC-827 to NCI-H2347, the relative viability falls from 1.01 to 0.79.

Compared with NCI-H1355, CAL-12T is higher in relative viability: 1 for the first, 1.26 for the second.

Same assay, conditions: first compound 0.3162 µM

Going from H3255 to COR-L23, the relative viability rises from 0.351 to 1.29.

Going from COR-L 105 to LOU-NH91, the relative viability falls from 0.926 to 0.589.

Compared with ChaGo-K-1, NCI-H3122 is lower in relative viability: 1.1 for the first, 1.09 for the second.

Going from HOP-62 to LXF-289, the relative viability falls from 1.11 to 0.992.

First: BEN
Second: HARA
The relative viability of the first is lower: 0.0612 for the first, 1.2 for the second.

Going from HCC-78 to NCI-H441, the relative viability falls from 0.77 to 0.749.

First: LCLC-97TM1
Second: NCI-H2023
The relative viability of the first is lower: 0.639 for the first, 0.925 for the second.

Going from A-427 to NCI-H460, the relative viability rises from 0.927 to 1.33.

Compared with NCI-H1755, NCI-H520 is higher in relative viability: 0.931 for the first, 1.05 for the second.

Going from NCI-H2405 to SW 1573, the relative viability rises from 0.731 to 1.19.

First: NCI-H1395
Second: 201T
The relative viability of the first is lower: 1.1 for the first, 1.21 for the second.

First: NCI-H1975
Second: HCC-827
The relative viability of the first is lower: 0.92 for the first, 0.942 for the second.

First: NCI-H2347
Second: NCI-H1355
The relative viability of the first is higher: 0.861 for the first, 0.754 for the second.

Work on CAL-12T yielded a relative viability of 1.17.

Same assay, conditions: first compound 1 µM

Going from H3255 to COR-L23, the relative viability rises from 0.409 to 1.14.

Going from COR-L 105 to LOU-NH91, the relative viability falls from 0.774 to 0.673.

Compared with ChaGo-K-1, NCI-H3122 is higher in relative viability: 0.839 for the first, 1.04 for the second.

First: HOP-62
Second: LXF-289
The relative viability of the first is higher: 1.05 for the first, 0.934 for the second.

Compared with BEN, HARA is higher in relative viability: 0.194 for the first, 1.19 for the second.

Compared with HCC-78, NCI-H441 is lower in relative viability: 0.763 for the first, 0.602 for the second.

First: LCLC-97TM1
Second: NCI-H2023
The relative viability of the first is lower: 0.355 for the first, 0.92 for the second.

Compared with A-427, NCI-H460 is higher in relative viability: 0.933 for the first, 1.26 for the second.

First: NCI-H1755
Second: NCI-H520
The relative viability of the first is lower: 0.894 for the first, 1.08 for the second.

First: NCI-H2405
Second: SW 1573
The relative viability of the first is lower: 0.825 for the first, 0.972 for the second.

First: NCI-H1395
Second: 201T
The relative viability of the first is lower: 1.05 for the first, 1.19 for the second.

NCI-H1975 and HCC-827 are the same in relative viability: 1.01 for the first, 1.01 for the second.

Going from NCI-H2347 to NCI-H1355, the relative viability rises from 0.764 to 0.946.

With CAL-12T the relative viability was 1.25.
